In PubChem BioAssay (NCI):
Values joined by “and” are separate entries in the source; they are usually repeats but may differ in a detail not shown here. Identical values can stand only once.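 Test compounds were applied to cells in 96-well plates for 48 hours at 5 doses. GI50 is the concentration that inhibits growth by half. TGI: concentration producing complete growth inhibition.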

Tests used:
Test in all cases: DTP human tumour cell line panel, 48 h
CAKI-1 renal = test system: CAKI-1 renal
NCI-H460 lung = test system: NCI-H460 lung
TK-10 renal = test system: TK-10 renal
NCI-H522 lung = test system: NCI-H522 lung
DU-145 prostate = test system: DU-145 prostate
HCT-116 colon = test system: HCT-116 colon
M14 melanoma = test system: M14 melanoma
UACC-257 melanoma = test system: UACC-257 melanoma
SNB-19 CNS = test system: SNB-19 CNS
U251 CNS = test system: U251 CNS

Row | Compound | GI50 (CAKI-1 renal) | TGI (CAKI-1 renal) | GI50 (NCI-H460 lung) | TGI (NCI-H460 lung) | GI50 (TK-10 renal) | TGI (TK-10 renal) | GI50 (NCI-H522 lung) | GI50 (DU-145 prostate) | TGI (DU-145 prostate) | GI50 (HCT-116 colon) | TGI (HCT-116 colon) | GI50 (M14 melanoma) | TGI (M14 melanoma) | GI50 (UACC-257 melanoma) | TGI (UACC-257 melanoma) | GI50 (SNB-19 CNS) | TGI (SNB-19 CNS) | GI50 (U251 CNS) | TGI (U251 CNS) | TGI (NCI-H522 lung)
1 | COc1ccc(C2=CC(c3ccc(OC)c(OC)c3)c3c(c4ccccc4oc3=O)O2)cc1OC (centres undefined) | 1.67 µM | > 100 µM | 1.9 µM | > 100 µM | > 24.9 µM | > 100 µM | 1.44 µM | 1.73 µM | > 30.7 µM | 1.58 µM | > 59.6 µM | 1.27 µM | > 31.3 µM | 1.13 µM | > 100 µM | 1.99 µM | > 77.3 µM | 3.19 µM | > 100 µM | –
2 | CO[C@H]1CC(c2ccc[nH]2)=N[C@]12O[C@@H](C)C[C@@H]1CCCCCCCc3ccc([nH]3)[C@H]12 | 1.18 µM | 11.3 µM | 0.813 µM | 6.07 µM | 2.33 µM | > 29.6 µM | 1.29 µM | 1.49 µM | > 23.1 µM | 0.711 µM | 3.48 µM | 0.898 µM | 3.35 µM | 1.33 µM | 7.63 µM | 3.41 µM | > 33.3 µM | 1.14 µM | 17.3 µM | 9.98 µM
3 | OCCN1CCN(CC/C=C2\c3ccccc3Sc3ccc(Cl)cc32)CC1 | 2.31 µM and 2.6 µM | 10.4 µM and 8.18 µM | 1.89 µM and 2.19 µM | 3.75 µM and 4.5 µM | 4.59 µM and 2.07 µM | 19.4 µM and 5.62 µM | 11.6 µM and 1.75 µM | 5.18 µM and 7.27 µM | 17.4 µM and 19.7 µM | 2.39 µM and 1.98 µM | 4.85 µM and 4.18 µM | 1.78 µM | 4.27 µM and 3.22 µM | 1.97 µM and 1.71 µM | 4.18 µM and 3.17 µM | 2.45 µM and 4.49 µM | 6.43 µM and 10.4 µM | 2.34 µM and 2.46 µM | 5.96 µM and 6.4 µM | 29.1 µM and 3.38 µM
4 | CNC(=O)OCC1C2=C(C(=O)C(C)=C(N)C2=O)N2CC3C(N3C)C12OC (centres undefined) | – | 32.7 µM | – | 10 µM | – | > 100 µM | – | – | 55 µM | – | 30.4 µM | – | > 100 µM | – | 70.9 µM | – | > 100 µM | – | 45.7 µM | 19.2 µM
5 | Cc1cc2c(cc1N)C(C)C1(CCC(=O)N2Cc2ccccc2)OCCO1 (centres undefined) | – | > 100 µM | – | > 100 µM | – | > 100 µM | – | – | > 100 µM | – | > 100 µM | – | > 100 µM | – | > 100 µM | – | > 100 µM | – | > 100 µM | > 100 µM
6 | C/C=C(\C)C(=O)N[C@H]1C(O)C[C@]2(C)C3CC[C@@]4(C)C(CC[C@@H]4C(C)N(C)C)C3CCC2C1O (some centres undefined) | 9.42 µM | 38.8 µM | 2.07 µM | 4.59 µM | 18.1 µM | 41.5 µM | 11.2 µM | 12.6 µM | > 83.3 µM | 2.28 µM | 6.39 µM | 2.02 µM | 3.88 µM | 3.22 µM | 9.75 µM | 18.8 µM | 43.8 µM | 4.35 µM | 27.6 µM | > 43.7 µM
7 | O=C1NCCS(=O)(=O)/C1=C\C=C\c1cccc(C(F)(F)F)c1 | 2.22 µM | 10.2 µM | 2.73 µM | 7.68 µM | 3.95 µM | 13 µM | 1.43 µM | 2.96 µM | 13.6 µM | 1.41 µM | 3.72 µM | 1.89 µM | 7.24 µM | 1.83 µM | 9.22 µM | 2.62 µM | 10.7 µM | 1.67 µM | 3.86 µM | 3.19 µM
